This is an account of results in article PMC8780549, “Discovery of Small Molecules as Membrane-Bound Catechol-O-methyltransferase Inhibitors with Interest in Parkinson’s Disease: Pharmacophore Modeling, Molecular Docking and In Vitro Experimental Validation Studies” (Pharmaceuticals, 2021).

The subject of test [1] is normal human dermal fibroblasts (NHDF). Kind of test: MTT cytotoxicity assay in NHDF cells. Type of test: cell-based. As to conditions: 48 h.
The test system of test [2] is dopaminergic neuronal cells (N27). Briefly: MTT cytotoxicity assay in N27 cells. The test is classed as cell-based. Conditions: Rattus norvegicus, 48 h. (In general: Formazan colour is commonly taken as a measure of viable cells.)
A further test concerns Liver MBCOMT. Conditions: cited from earlier work.
For a further test, the target named is T1, human recombinant MBCOMT (Homo sapiens, UniProt P21964).
T1 sequence (P21964 1-271): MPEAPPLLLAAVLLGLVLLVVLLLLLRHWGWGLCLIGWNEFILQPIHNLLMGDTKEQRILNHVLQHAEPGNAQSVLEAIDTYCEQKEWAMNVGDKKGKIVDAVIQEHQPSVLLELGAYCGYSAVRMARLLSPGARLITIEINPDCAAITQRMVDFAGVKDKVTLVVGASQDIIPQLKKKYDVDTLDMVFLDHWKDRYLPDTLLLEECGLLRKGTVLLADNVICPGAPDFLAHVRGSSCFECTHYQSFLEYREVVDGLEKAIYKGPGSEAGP
Briefly: In-vitro MBCOMT enzymatic inhibition assay (metanephrine from epinephrine, HPLC). Conditions: for IC50: IC50 (nM), Recombinant MBCOMT, this work, means with 95% confidence (n = 2 to 3); for pIC50: IC50, Recombinant MBCOMT, bound stated.

As a reminder, the IC50 is the concentration needed to halve the response being measured. Broadly, the pIC50 is the IC50 on a negative log10 scale, so that one unit is a factor of ten. The inhibition is how much of the control response was suppressed.

pIC50: −log10 of the molar value.

As to `O=c1[nH]cc(F)c(=O)[nH]1` [Compound 5-FU, 5-fluorouracil, reference compound], the IC50 in test [1] (Homo sapiens) is 5.16 µM; in test [2], 4.28 µM.
In the case of `Cc1ccc(C(=O)c2cc(O)c(O)c([N+](=O)[O-])c2)cc1` [Tolcapone], the pIC50 with Liver MBCOMT is 6.91.
In test [1] (Homo sapiens), `C/C(=N\Cc1ccccc1)c1ccc(O)c(O)c1O` [ZINC98288] came in with a concentration for half-maximal inhibition (IC50) of over 100 µM. On human recombinant MBCOMT, the inhibition at 10 µM was determined as 100%, the inhibition at 100 µM is 100%, the IC50 was determined as 944 nM and the pIC50 was over 6.00. The same molecule came in with a half-inhibitory concentration (IC50) in test [2] of 69.8 µM.
For `Cc1[nH]nc(-c2ccc(O)c(O)c2O)c1Oc1ccccc1` [ZINC302226], the half-maximal inhibitory concentration (IC50) is over 100 µM in test [1] (Homo sapiens), 1080 nM at human recombinant MBCOMT and 52.5 µM in test [2]. In addition, the inhibition at 10 µM at human recombinant MBCOMT was found to be 56%. Moreover, the inhibition at 100 µM on human recombinant MBCOMT came to 100%.
Consider `N#Cc1cc(O)c(O)c([N+](=O)[O-])c1` [ZINC27985035], for which the half-inhibitory concentration (IC50) amounted to 40.3 µM in test [1]; 40.3 µM in test [1] (Homo sapiens, NHDF); 61.3 µM in test [2].
`COC(=O)c1cc(O)c(O)c([N+](=O)[O-])c1` [ZINC38175059]: at human recombinant MBCOMT, the inhibition at 10 µM is 100% and the inhibition at 100 µM is 100%.
For the molecule `Cc1cc(=O)oc2c(O)c(O)c(C(=O)O)cc12` [ZINC68675288], on human recombinant MBCOMT, the inhibition at 10 µM is 40% and the inhibition at 100 µM worked out at 43%.
In the case of `O=Cc1cc([N+](=O)[O-])c(O)c(O)c1Br` [ZINC78496496], half-maximal inhibition in test [1] (Homo sapiens) (IC50) required 92.9 µM. Besides, at human recombinant MBCOMT, the inhibition at 10 µM amounted to 81%, the inhibition at 100 µM came out at 100%, the IC50 amounted to 470 nM and the pIC50 is over 6.00. In addition, the concentration for half-maximal inhibition (IC50) in test [2] was over 100 µM.
Regarding `CC(C)Cn1c(-c2cc(-c3ccc(O)c(O)c3O)nc3c2c(O)nn3C(C)C)nc2ccccc21` [ZINC95473053], at human recombinant MBCOMT, the inhibition at 10 µM amounted to 41% and the inhibition at 100 µM was 46%.
For `C[C@@]1(C(=O)O)CC[C@]2(C)CC[C@]3(C)C4=CC(=O)c5c(cc(O)c(O)c5C=O)[C@@]4(C)CC[C@@]3(C)[C@@H]2C1` [ZINC605706834], at human recombinant MBCOMT, the inhibition at 10 µM came out at 39% and the inhibition at 100 µM was determined as 34%.
As for `Cc1ccc(/N=C/c2c(O)c(O)cc3ccccc23)cc1` [ZINC825166420], it took 12.1 µM to reach half-maximal inhibition in test [1] (Homo sapiens) (IC50). On human recombinant MBCOMT, the inhibition at 10 µM was found to be 72%, the inhibition at 100 µM was found to be 100% and the IC50 came out at 1540 nM. Also, the midpoint of inhibition in test [2], the IC50, lay at 17 µM.
As to `COc1ccc(-c2nc(-c3cccc(O)c3O)[nH]c2-c2oc(C)cc(=O)c2O)cc1` [ZINC1547205762], at human recombinant MBCOMT, the inhibition at 10 µM is 14% and the inhibition at 100 µM is 27%.
